Reference: article PMC6270001, “Synthesis and Antiviral Activity of N-Phenylbenzamide Derivatives, a Novel Class of Enterovirus 71 Inhibitors” (Molecules, 2013)

Key:
[1] = test system: EV 71 strain BrCr (genotype A); test: Anti EV 71 activity assay (CPE, Reed & Muench) in Vero cells, strain BrCr; type: cell-based, Enterovirus 71; conditions: for IC50: EV 71 strain BrCr, Vero cells, 100 TCID50, CPE, average ± SD, n=3; for SI BrCr: selectivity index TC50/IC50, strain BrCr, "-" stands for no antiviral selectivity
Protocol: (§1) The EV 71 was divided into three genotypes A, B and C based on nucleotide sequence comparisons, and genotypes B and C were subdivided into B1-B5 and C1-C5 [6, 10]. Genotype C is the most common genotype found in mainland China, especially the C4 subgenotype. Consequently, the intermediate compounds 1a, 1c and 1e, and the final products 2a–c, 3a–g, and 5a–f were evaluated for their anti-EV 71 activity in Vero cells against genotypes C4 (strains SZ-98 and JS-52-3), C2 (strain H) and A (strain BrCr). […] The IC50 values were calculated by the Reed and Muench method, and the cytotoxicity was monitored by the CPE method.
(§2) Vero cells were purchased from the American Type Culture Collection and cultured in Minimum Essential Medium (MEM) supplemented with 10% Fetal Bovine Serum (FBS) and antibiotics (100 U/mL penicillin G, 100 μg/mL streptomycin). Enterovirus 71 (EV 71) strain SZ-98 was kindly provided by Dr. Qi Jin, Institute of Pathogen Biology, Chinese Academy of Medical Science and Peking Union Medical School. Enterovirus 71 (EV 71) strain BrCr (VR-1775) was purchased from the American Type Culture Collection. Enterovirus 71 (EV 71) strain JS-52-3 was kindly provided by Dr. Xiang-zhong Ye, Beijing Wantai Biological Pharmacy Enterprise Co., Ltd. All Enterovirus 71 strains were propagated in Vero cells.
(§3) All compounds were dissolved in DMSO at 20 mg/mL as a stock solution and further diluted in culture medium prior to use. The initial concentration in all cytotoxicity assay was 200 µg/mL, and inhibition assay for anti-EV71 experiments was from maximum non-toxic concentration, and proceeded serially 3-fold dilution with culture medium. All cytotoxicity and activity assay for each compound was repeated for three times, and the data was indicated as average ± SD.
(§4) Confluent Vero cells grown in 96-well microplates were infected respectively with 100 median tissue culture infective dose (TCID50) EV 71. After 1 h adsorption at 37 °C, the monolayers were washed by PBS and incubated at 37 °C in the maintenance medium with or without different concentrations of test compounds.

[2] = test system: EV 71 strain SZ-98 (genotype C4); test: Anti EV 71 activity assay (CPE, Reed & Muench) in Vero cells, strain SZ-98; type: cell-based, Enterovirus 71; conditions: for IC50: EV 71 strain SZ-98, Vero cells, 100 TCID50, CPE, average ± SD, n=3; for SI SZ-98: selectivity index TC50/IC50, strain SZ-98, "-" stands for no antiviral selectivity
Protocol: as §1, §2, §3, §4

[3] = test system: Vero cells; test: Cytotoxicity determination in Vero cells monitored by cytopathic effect (CPE); type: cell-based; conditions: 48 h, Reed & Muench, concentration that inhibits 50% cellular growth, average ± SD, n=3
Protocol: as §2, with “Enterovirus 71 (EV 71) strain BrCr (VR-1775) was purchased from the American Type Culture Collection.” left out
as §3
The cytotoxicity of compounds in the presence of Vero cells was monitored by cytopathic effect (CPE). Vero cells (2.5 × 10^4/well) were plated into a 96-well plate. A total of 24 h later, the monolayer cells were incubated in the presence of various concentrations of test compounds. […] The median toxic concentration (TC50) was calculated by Reed & Muench analyses.

[4] = test system: EV 71 strain H (genotype C2); test: Anti EV 71 activity assay (CPE, Reed & Muench) in Vero cells, strain H; type: cell-based, Enterovirus 71; conditions: for IC50: EV 71 strain H (C2 genotype), Vero cells, 100 TCID50, CPE, average ± SD, n=3; for SI H: selectivity index TC50/IC50, strain H, "-" stands for no antiviral selectivity
Protocol: as §1, §2, §3, §4

[5] = test system: EV 71 strain JS-52-3 (genotype C4); test: Anti EV 71 activity assay (CPE, Reed & Muench) in Vero cells, strain JS-52-3; type: cell-based, Enterovirus 71; conditions: for IC50: EV 71 strain JS-52-3, Vero cells, 100 TCID50, CPE, average ± SD, n=3; for SI JS-52-3: selectivity index TC50/IC50, strain JS-52-3, "-" stands for no antiviral selectivity
Protocol: as §1, §2, §3, §4

[6] = test system: EV 71 strains SZ-98, JS-52-3, H, BrCr; test: Anti EV 71 activity assay in Vero cells, summary over the four strains tested; type: cell-based, Enterovirus 71; conditions: for selectivity index (SI) values (range over strains): TC50/IC50, range over the EV 71 strains tested
Protocol: as §1, §2, §3, §4

| SMILES | IC50 ([1]; Enterovirus A, Vero) [µM] | SI BrCr [1] | IC50 ([2]; Enterovirus A, Vero) [µM] | TC50 [3] [µM] | IC50 ([4]; Enterovirus A, Vero) [µM] | SI H [4] | IC50 ([5]; Enterovirus A, Vero) [µM] | SI JS-52-3 [5] | melting point [°C] | SI SZ-98 [2] | IC50 [2] [µM] | IC50 [1] [µM] | selectivity index (SI) values (range over strains) [6] | IC50 [4] [µM] | IC50 [5] [µM] | anti-EV 71 activity (in words) ([6]; structure-activity discussion) |
| --- | --- | --- | --- | --- | --- | --- | --- | --- | --- | --- | --- | --- | --- | --- | --- | --- |
| COc1ccc(C(=O)Nc2ccccc2)cc1N [Compound 1a] | 160 ± 12 | 5.2 | 350 ± 24 | >820 | 190 ± 14 | 4.3 | 160 ± 7.9 | 5.2 | – | – | – | – | – | – | – | – |
| COc1ccc(C(=O)Nc2cc(OC)c(OC)c(OC)c2)cc1N(C)C [Compound 3d, 3-Dimethylamino-4-methoxy-N-(3,4,5-trimethoxyphenyl)benzamide] | 190 | >3.0 | 320 ± 32 | >560 | 190 | >3.0 | > 560 | – | 120 to 122 | >1.7 | – | – | – | – | – | – |
| CCC(=O)Oc1cc(C(=O)N(C)c2ccc(Cl)cc2)ccc1OC [Compound 5d, N-(4-Chlorophenyl)-N-methyl-4-methoxy-3-propionyloxybenzamide] | 53 ± 2.4 | 5.2 | 190 ± 12 | 280 ± 21 | 65 | 4.3 | 44 ± 3.7 | 6.2 | 139 to 141 | 1.4 | – | – | – | – | – | – |
| COc1ccc(C(=O)Nc2ccc(Cl)cc2)cc1OC(C)=O [Compound 5e, N-(4-Chlorophenyl)-4-methoxy-3-acetoxybenzamide] | 32 ± 3.9 | 15 | ~15 | 470 ± 22 | 22 ± 4.7 | 21 | 32 ± 3.6 | 14 | 177 to 179 | 37 | 13 ± 2.4 | – | – | – | – | – |
| CCCNc1cc(C(=O)Nc2cc(OC)c(OC)c(OC)c2)ccc1OC [Compound 3g, 4-Methoxy-3-(propylamino)-N-(3,4,5-trimethoxyphenyl)benzamide] | ~15 | 27 | > 59 | 530 | ~15 | 35 | 34 ± 2.5 | 16 | 164 to 167 | – | – | 20 ± 3.1 | 16–35 | – | – | – |
| CNc1cc(C(=O)Nc2ccccc2)ccc1OC [Compound 3a, 4-Methoxy-3-methylamino-N-phenylbenzamide] | 180 ± 14 | 4.3 | > 260 | 780 ± 0.0 | 260 | 3.0 | 260 | 3.0 | 170 to 172 | – | – | – | – | – | – | – |
| COc1cc(C(=O)Nc2ccccc2)ccc1NC(=O)C(C)F (centres unmarked) [Compound 2c, 4-(2-Fluoropropanamido)-3-methoxy-N-phenylbenzamide] | 90 ± 9.5 | >7.0 | 110 ± 12 | >630 | 41 ± 2.9 | >16 | 34 ± 2.8 | – | 142 to 143 | >5.8 | – | – | – | – | – | – |
| CCCNc1cc(C(=O)Nc2ccccc2)ccc1OC [Compound 3e, 4-Methoxy-N-phenyl-3-(propylamino)benzamide] | 45 | 9.0 | > 78 | 410 ± 22 | ~15 | 20 | 34 ± 4.6 | 12 | 121 to 123 | – | – | – | – | 20 ± 1.2 | – | – |
| CCC(=O)Nc1cc(C(=O)Nc2ccc(Br)cc2)ccc1OC [Compound 5c] | 34 | 16 | ~15 | 530 ± 0.0 | ~15 | 63 | ~15 | 27 | – | 47 | 11 ± 0.8 | – | 16–63 | 8.4 ± 1.2 | 20 ± 3.1 | – |
| COc1ccc(C(=O)NC2CCCCC2)cc1NC(=O)C(C)F (centres unmarked) [Compound 2b, N-Cyclohexyl-3-(2-fluoropropanamido)-4-methoxybenzamide] | 360 ± 26 | >1.7 | > 620 | >620 | 430 ± 36 | >1.4 | 210 | >3.0 | 192 to 194 | – | – | – | – | – | – | no anti-EV 71 activity was observed |
| COc1ccc(C(=O)Nc2ccccc2)cc1OC(C)=O [Compound 5f, 4-Methoxy-N-phenyl-3-acetoxybenzamide] | 95 ± 9 | 3.8 | 90 ± 11 | 360 ± 39 | 47 ± 6.1 | 7.6 | 98 ± 4.7 | 3.7 | 153 to 155 | 4.0 | – | – | – | – | – | – |
| CCCNc1cc(C(=O)Nc2ccc(Cl)cc2)ccc1OC [Compound 3f, N-(4-Chlorophenyl)-4-methoxy-3-propylaminobenzamide] | > 70 | – | > 70 | 120 | > 70 | – | > 70 | – | 168 to 171 | – | – | – | – | – | – | – |
| CNc1cc(C(=O)Nc2cc(OC)c(OC)c(OC)c2)ccc1OC [Compound 3c, 4-Methoxy-3-methylamino-N-(3,4,5-trimethoxyphenyl)benzamide] | 44 ± 1 | 6.2 | 64 | 280 ± 5.9 | 37 ± 1.2 | 7.5 | 37 ± 1.9 | 7.5 | 147 to 148 | 4.3 | – | – | – | – | – | – |
| CCC(=O)Nc1cc(C(=O)Nc2ccccc2)ccc1OC [Compound 5a] | 45 ± 10 | – | > 75 | >670 | 96 ± 10 | >7.0 | 58 ± 4.9 | >12 | – | – | – | – | – | – | – | – |
| COc1ccc(C(=O)Nc2ccccc2)cc1NC(=O)C(C)F (centres unmarked) [Compound 2a] | > 630 | – | > 630 | – | 18 ± 1.2 | >35 | 160 ± 5.7 | >3.9 | – | – | – | – | – | – | – | – |
| CCC(=O)Nc1cc(C(=O)Nc2ccc(Cl)cc2)ccc1OC [Compound 5b, N-(4-Chlorophenyl)-4-methoxy-3-propionamidobenzamide] | > 67 | – | 38 ± 2.9 | >600 | 22 ± 2.9 | >27 | 39 ± 1.9 | >16 | 130 to 132 | > 16 | – | – | – | – | – | – |
| COc1ccc(C(=O)Nc2ccc(Cl)cc2)cc1N(C)C [Compound 3b, N-(4-Chlorophenyl)-3-dimethylamino-4-methoxybenzamide] | 50 ± 3.8 | 10 | 73 ± 8.6 | 510 ± 38 | 31 ± 4.3 | 16 | 42 ± 3.1 | 12 | 160 to 162 | 7.0 | – | – | – | – | – | – |
